Assay results taken from patent US9315498B2, “Arlethynyl derivatives” (Hoffmann-La Roche Inc., priority 2010, dated 2016).

Target: human mGlu5a receptor (Homo sapiens (Human), UniProt P41594)
Experiment: Intracellular Ca2+ mobilization assay (mGlu5 PAM)
Format: cell-based
Details: for Emax: maximal response in % of the maximal stimulatory effect obtained with saturating concentrations of L-glutamate, read-out: Eff. (%); for EC50: HEK-293 cells stably transfected with human mGlu5a, L-glutamate added at EC20 after pre-incubation with test compound, read-out: EC50 (nM) mGlu5PAM
Description: A monoclonal HEK-293 cell line stably transfected with a cDNA encoding for the human mGlu5a receptor was generated; for the work with mGlu5 Positive Allosteric Modulators (PAMs), a cell line with low receptor expression levels and low constitutive receptor activity was selected to allow the differentiation of agonistic versus PAM activity. Cells were cultured according to standard protocols (Freshney, 2000) in Dulbecco's Modified Eagle Medium with high glucose supplemented with 1 mM glutamine, 10% (vol/vol) heat-inactivated bovine calf serum, Penicillin/Streptomycin, 50 μg/ml hygromycin and 15 μg/ml blasticidin (all cell culture reagents and antibiotics from Invitrogen, Basel, Switzerland).
About 24 hrs before an experiment, 5×10^4 cells/well were seeded in poly-D-lysine coated, black/clear-bottomed 96-well plates. The cells were loaded with 2.5 μM Fluo-4AM in loading buffer (1×HBSS, 20 mM HEPES) for 1 hr at 37° C. and washed five times with loading buffer. The cells were transferred into a Functional Drug Screening System 7000 (Hamamatsu, Paris, France), and 11 half logarithmic serial dilutions of test compound at 37° C. were added and the cells were incubated for 10-30 min. with on-line recording of fluorescence. Following this pre-incubation step, the agonist L-glutamate was added to the cells at a concentration corresponding to EC20 (typically around 80 μM) with on-line recording of fluorescence; in order to account for day-to-day variations in the responsiveness of cells, the EC20 of glutamate was determined immediately ahead of each experiment by recording of a full dose-response curve of glutamate.
Responses were measured as peak increase in fluorescence minus basal (i.e. fluorescence without addition of L-glutamate), normalized to the maximal stimulatory effect obtained with saturating concentrations of L-glutamate. Graphs were plotted with the % maximal stimulatory using XLfit, a curve fitting program that iteratively plots the data using Levenburg Marquardt algorithm. The single site competition analysis equation used was y=A+((B−A)/(1+((x/C)D))), where y is the % maximal stimulatory effect, A is the minimum y, B is the maximum y, C is the EC50, x is the log10 of the concentration of the competing compound and D is the slope of the curve (the Hill Coefficient). From these curves the EC50 (concentration at which half maximal stimulation was achieved), the Hill coefficient as well as the maximal response in % of the maximal stimulatory effect obtained with saturating concentrations of L-glutamate were calculated.
A depression of the signal observed after addition of the EC20 concentration of L-glutamate was indicative of an inhibitory activity of the test compound.

human mGlu5a receptor, sequence (P41594 other isoform, or with tags, fused parts or gaps): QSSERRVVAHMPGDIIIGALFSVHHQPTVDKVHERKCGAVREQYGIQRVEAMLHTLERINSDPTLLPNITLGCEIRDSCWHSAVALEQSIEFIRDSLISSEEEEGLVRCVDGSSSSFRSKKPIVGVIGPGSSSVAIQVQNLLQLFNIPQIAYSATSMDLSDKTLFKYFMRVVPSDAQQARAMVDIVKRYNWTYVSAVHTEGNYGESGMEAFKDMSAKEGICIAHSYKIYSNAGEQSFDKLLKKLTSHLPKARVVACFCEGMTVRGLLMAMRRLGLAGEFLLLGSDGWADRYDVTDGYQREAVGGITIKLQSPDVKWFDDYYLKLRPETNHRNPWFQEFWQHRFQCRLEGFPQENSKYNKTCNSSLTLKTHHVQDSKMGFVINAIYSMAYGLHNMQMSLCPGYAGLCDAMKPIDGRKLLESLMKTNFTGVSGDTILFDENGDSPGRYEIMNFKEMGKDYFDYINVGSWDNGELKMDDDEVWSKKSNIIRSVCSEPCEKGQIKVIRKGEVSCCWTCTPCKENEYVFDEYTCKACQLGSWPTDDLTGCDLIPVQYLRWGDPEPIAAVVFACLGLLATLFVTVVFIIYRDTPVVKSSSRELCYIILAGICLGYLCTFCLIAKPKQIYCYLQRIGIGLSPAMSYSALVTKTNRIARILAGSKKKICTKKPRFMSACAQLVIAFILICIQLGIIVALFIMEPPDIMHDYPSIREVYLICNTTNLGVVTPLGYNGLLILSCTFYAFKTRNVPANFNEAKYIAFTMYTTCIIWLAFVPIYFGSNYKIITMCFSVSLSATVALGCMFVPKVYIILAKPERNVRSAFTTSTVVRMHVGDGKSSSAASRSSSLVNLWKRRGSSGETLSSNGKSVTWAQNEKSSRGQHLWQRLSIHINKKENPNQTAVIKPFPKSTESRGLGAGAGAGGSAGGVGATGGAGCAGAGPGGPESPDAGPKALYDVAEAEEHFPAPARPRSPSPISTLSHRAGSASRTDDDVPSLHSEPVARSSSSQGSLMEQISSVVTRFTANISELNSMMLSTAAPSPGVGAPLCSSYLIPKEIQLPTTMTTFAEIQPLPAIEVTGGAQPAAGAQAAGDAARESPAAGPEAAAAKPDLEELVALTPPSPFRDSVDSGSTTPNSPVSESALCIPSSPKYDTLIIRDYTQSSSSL

Question: For `CN1CC(C)(C)CN(c2ccc(C#Cc3ccccc3)cn2)C1=O` [Example 26, 1,5,5-Trimethyl-3-(5-phenylethynyl-pyridin-2-yl)-tetrahydro-pyrimidin-2-one], which Emax is on record?
Answer: 131%

Question: What does the source list for `CC1(C)OC(=O)N(c2ccc(C#Cc3ccccc3)cn2)C1(C)C` [Example 28, 4,4,5,5-Tetramethyl-3-(5-phenylethynyl-pyridin-2-yl)-oxazolidin-2-one]?
Answer: EC50: 48 nM; Emax: 31%

Question: What does the source list for `CC1(C)CN(c2ccc(C#Cc3cncc(F)c3)cn2)C(=O)O1` [Example 29, 3-[5-(5-Fluoro-pyridin-3-ylethynyl)-pyridin-2-yl]-5,5-dimethyl-oxazolidin-2-one]?
Answer: EC50: 15 nM; Emax: 45%

Question: What does the source list for `CC1(C)CN(c2ccc(C#Cc3cncnc3)cn2)C(=O)O1` [Example 30, 5,5-Dimethyl-3-(5-pyrimidin-5-ylethynyl-pyridin-2-yl)-oxazolidin-2-one]?
Answer: EC50: 80 nM; Emax: 43%

Question: For `Cn1cc(C#Cc2ccc(N3CC(C)(C)OC3=O)nc2)cn1` [Example 31, 5,5-Dimethyl-3-[5-(1-methyl-1H-pyrazol-4-ylethynyl)-pyridin-2-yl]-oxazolidin-2-one], which EC50 is on record?
Answer: 26 nM

Question: What about the Emax of the same compound?
Answer: 55%

Question: Which results are given for `CC1(C)CN(c2ccc(C#Cc3ccc(F)cc3)cn2)C(=O)O1` [Example 32, 3-[5-(4-Fluoro-phenylethynyl)-pyridin-2-yl]-5,5-dimethyl-oxazolidin-2-one]?
Answer: EC50: 19 nM; Emax: 60%

Question: Which EC50 does the source give for `CC1(C)CN(c2ccc(C#Cc3ccc(F)c(F)c3)cn2)C(=O)O1` [Example 33, 3-[5-(3,4-Difluoro-phenylethynyl)-pyridin-2-yl]-5,5-dimethyl-oxazolidin-2-one] here?
Answer: 32 nM

Question: And the Emax?
Answer: 44%

Question: For `CC1(C)CN(c2ccc(C#Cc3cc(F)ccc3F)cn2)C(=O)O1` [Example 34, 3-[5-(2,5-Difluoro-phenylethynyl)-pyridin-2-yl]-5,5-dimethyl-oxazolidin-2-one], which EC50 is on record?
Answer: 11 nM

Question: What about the Emax of the same compound?
Answer: 38%

Question: Which EC50 does the source give for `CC1(C)CN(c2ccc(C#Cc3ccc(F)nc3)cn2)C(=O)O1` [Example 35, 3-[5-(6-Fluoro-pyridin-3-ylethynyl)-pyridin-2-yl]-5,5-dimethyl-oxazolidin-2-one] here?
Answer: 54 nM

Question: What about the Emax of the same compound?
Answer: 52%

Question: Which results are given for `O=C1OC2(CC2)CN1c1ccc(C#Cc2cccnc2)cn1` [Example 36, 6-(5-Pyridin-3-ylethynyl-pyridin-2-yl)-4-oxa-6-aza-spiro[2.4]heptan-5-one]?
Answer: EC50: 58 nM; Emax: 80%

Question: With `CC1(C)CC(=O)N(c2ccc(C#Cc3cncc(F)c3)cn2)C1` [Example 37, 1-[5-(5-Fluoro-pyridin-3-ylethynyl)-pyridin-2-yl]-4,4-dimethyl-pyrrolidin-2-one] as the compound, how does the EC50 read?
Answer: 22 nM

Question: What about the Emax of the same compound?
Answer: 96%

Question: `CC1(C)CC(=O)N(c2ccc(C#Cc3cccnc3)cn2)C1` [Example 38, 4,4-Dimethyl-1-(5-pyridin-3-ylethynyl-pyridin-2-yl)-pyrrolidin-2-one] was tested. Which EC50 did it give?
Answer: 33 nM

Question: And the Emax?
Answer: 147%

Question: With `CC1(C)CC(=O)N(c2ccc(C#Cc3cncc(Cl)c3)cn2)C1` [Example 39, 1-[5-(5-Chloro-pyridin-3-ylethynyl)-pyridin-2-yl]-4,4-dimethyl-pyrrolidin-2-one] as the compound, how does the EC50 read?
Answer: 48 nM

Question: And the Emax?
Answer: 98%

Question: `CC1(C)CC(=O)N(c2ccc(C#Cc3cccc(F)c3)cn2)C1` [Example 40, 1-[5-(3-Fluoro-phenylethynyl)-pyridin-2-yl]-4,4-dimethyl-pyrrolidin-2-one] was tested. Which EC50 did it give?
Answer: 15 nM

Question: What about the Emax of the same compound?
Answer: 100%

Question: What does the source list for `Cc1cc(C#Cc2ccccc2)cnc1N1CC(C)(C)CC1=O` [Example 41, 4,4-Dimethyl-1-(3-methyl-5-phenylethynyl-pyridin-2-yl)-pyrrolidin-2-one]?
Answer: EC50: 58 nM; Emax: 89%

Question: Which results are given for `CC1(C)CCC(=O)N(c2ccc(C#Cc3ccccc3)cn2)C1` [Example 42, 5,5-Dimethyl-5′-phenylethynyl-3,4,5,6-tetrahydro-[1,2′]bipyridinyl-2-one]?
Answer: EC50: 16 nM; Emax: 139%

Question: How did the EC50 turn out when `CC1(C)CCC(=O)N(c2ccc(C#Cc3cccc(F)c3)cn2)C1` [Example 43, 5′-(3-Fluoro-phenylethynyl)-5,5-dimethyl-3,4,5,6-tetrahydro-[1,2′]bipyridinyl-2-one] was run?
Answer: 12 nM

Question: And the Emax?
Answer: 100%

Question: For `CN1C(=O)N(c2ccc(C#Cc3ccccc3)cn2)CC12CCCC2` [Example 44, 1-Methyl-3-(5-phenylethynyl-pyridin-2-yl)-1,3-diaza-spiro[4.4]nonan-2-one], which EC50 is on record?
Answer: 29 nM

Question: What about the Emax of the same compound?
Answer: 92%

Question: Which results are given for `CN1C(=O)N(c2ccc(C#Cc3cccnc3)cn2)CC1(C)C` [Example 48, 3,4,4-Trimethyl-1-(5-pyridin-3-ylethynyl-pyridin-2-yl)-imidazolidin-2-one]?
Answer: EC50: 14 nM; Emax: 89%

Question: Which results are given for `CN1C(=O)N(c2ccc(C#Cc3cncc(F)c3)cn2)CC1(C)C` [Example 49, 1-[5-(5-Fluoro-pyridin-3-ylethynyl)-pyridin-2-yl]-3,4,4-trimethyl-imidazolidin-2-one]?
Answer: EC50: 37 nM; Emax: 91%

Question: `CN1C(=O)N(c2ccc(C#Cc3cnn(C)c3)cn2)CC1(C)C` [Example 50, 3,4,4-Trimethyl-1-[5-(1-methyl-1H-pyrazol-4-ylethynyl)-pyridin-2-yl]-imidazolidin-2-one] was tested. Which EC50 did it give?
Answer: 27 nM

Question: What about the Emax of the same compound?
Answer: 41%

Question: What does the source list for `CN1C(=O)N(c2ccc(C#Cc3cncc(Cl)c3)cn2)CC1(C)C` [Example 51, 1-[5-(5-Chloro-pyridin-3-ylethynyl)-pyridin-2-yl]-3,4,4-trimethyl-imidazolidin-2-one]?
Answer: EC50: 29 nM; Emax: 45%

Question: For `CN1C(=O)N(c2ccc(C#Cc3ccnnc3)cn2)CC1(C)C` [Example 52, 3,4,4-Trimethyl-1-(5-pyridazin-4-ylethynyl-pyridin-2-yl)-imidazolidin-2-one], which EC50 is on record?
Answer: 34 nM

Question: And the Emax?
Answer: 32%

Question: How did the EC50 turn out when `CN1C(=O)N(c2ccc(C#Cc3cccc(F)c3)cn2)CC1(C)C` [Example 53, 1-[5-(3-Fluoro-phenylethynyl)-pyridin-2-yl]-3,4,4-trimethyl-imidazolidin-2-one] was run?
Answer: 29 nM

Question: And the Emax?
Answer: 103%

Question: How did the EC50 turn out when `CN1C(=O)N(c2ccc(C#Cc3cccc(Cl)c3)cn2)CC1(C)C` [Example 54, 1-[5-(3-Chloro-phenylethynyl)-pyridin-2-yl]-3,4,4-trimethyl-imidazolidin-2-one] was run?
Answer: 32 nM

Question: And the Emax?
Answer: 47%

Question: What does the source list for `CN1C(=O)N(c2ccc(C#Cc3cncnc3)cn2)CC1(C)C` [Example 55, 3,4,4-Trimethyl-1-(5-pyrimidin-5-ylethynyl-pyridin-2-yl)-imidazolidin-2-one]?
Answer: EC50: 54 nM; Emax: 110%

Question: What does the source list for `Cc1cccc(C#Cc2ccc(N3CC(C)(C)N(C)C3=O)nc2)c1` [Example 56, 3,4,4-Trimethyl-1-(5-m-tolylethynyl-pyridin-2-yl)-imidazolidin-2-one]?
Answer: EC50: 87 nM; Emax: 56%

Question: How did the EC50 turn out when `CN1C(=O)N(c2ccc(C#Cc3ccc(F)cc3)cn2)CC1(C)C` [Example 57, 1-[5-(4-Fluoro-phenylethynyl)-pyridin-2-yl]-3,4,4-trimethyl-imidazolidin-2-one] was run?
Answer: 35 nM

Question: What about the Emax of the same compound?
Answer: 78%

Question: Which results are given for `O=C1CC2(CCCC2)CN1c1ccc(C#Cc2ccccc2)cn1` [Example 59, 2-(5-Phenylethynyl-pyridin-2-yl)-2-aza-spiro[4.4]nonan-3-one]?
Answer: EC50: 16 nM; Emax: 81%

Question: For `CN1C(=O)N(c2ccc(C#Cc3ccccc3)cn2)CCC1(C)C` [Example 67, 3,4,4-Trimethyl-1-(5-phenylethynyl-pyridin-2-yl)-tetrahydro-pyrimidin-2-one], which EC50 is on record?
Answer: 15 nM

Question: What about the Emax of the same compound?
Answer: 81%

Question: For `CN1C(=O)N(c2ccc(C#Cc3cc(F)ccc3F)cn2)CCC1(C)C` [Example 68, 1-[5-(2,5-Difluoro-phenylethynyl)-pyridin-2-yl]-3,4,4-trimethyl-tetrahydro-pyrimidin-2-one], which EC50 is on record?
Answer: 41 nM

Question: What about the Emax of the same compound?
Answer: 79%

Question: For `CN1C(=O)N(c2ccc(C#Cc3ccc(F)cc3)cn2)CCC1(C)C` [Example 69, 1-[5-(4-Fluoro-phenylethynyl)-pyridin-2-yl]-3,4,4-trimethyl-tetrahydro-pyrimidin-2-one], which EC50 is on record?
Answer: 49 nM

Question: What about the Emax of the same compound?
Answer: 107%

Question: Which EC50 does the source give for `CC1(C)CCN(c2ccc(C#Cc3cccnc3)cn2)C(=O)O1` [Example 73, 6,6-Dimethyl-3-(5-pyridin-3-ylethynyl-pyridin-2-yl)-[1,3]oxazinan-2-one] here?
Answer: 59 nM

Question: What about the Emax of the same compound?
Answer: 98%

Question: Which EC50 does the source give for `CC1(C)CCN(c2ccc(C#Cc3cncc(F)c3)cn2)C(=O)O1` [Example 74, 3-[5-(5-Fluoro-pyridin-3-ylethynyl)-pyridin-2-yl]-6,6-dimethyl-[1,3]oxazinan-2-one] here?
Answer: 59 nM

Question: And the Emax?
Answer: 108%
